# Test results from ChEMBL document CHEMBL1201862, “PubChem BioAssay data set” (2004).
# Activity calls are given as the source filed them.
# Legend:
# [1] = Luminescence Cell-Based Dose Response HTS to Identify Inhibitors of 5'UTR Stem-Loop Driven Prion Protein mRNA Translation in H4 Neuroglioblastoma Cells. [Related pubchem assays: 1827 (Project Summary), 1813 (Primary HTS)]; format: functional
# Streptokinase A = molecular target: T1, Streptokinase A (Streptococcus pyogenes serotype M1, UniProt P10520); test: viability-normalized secreted streptokinase activity reduction – plasminogen activation absorbance, OD405, dose response (AID 1914); format: functional, Streptococcus pyogenes M1 GAS;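 also: secreted streptokinase activity via plasminogen activation per viability signal from cell pellet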
# T1 sequence (P10520 whole entry): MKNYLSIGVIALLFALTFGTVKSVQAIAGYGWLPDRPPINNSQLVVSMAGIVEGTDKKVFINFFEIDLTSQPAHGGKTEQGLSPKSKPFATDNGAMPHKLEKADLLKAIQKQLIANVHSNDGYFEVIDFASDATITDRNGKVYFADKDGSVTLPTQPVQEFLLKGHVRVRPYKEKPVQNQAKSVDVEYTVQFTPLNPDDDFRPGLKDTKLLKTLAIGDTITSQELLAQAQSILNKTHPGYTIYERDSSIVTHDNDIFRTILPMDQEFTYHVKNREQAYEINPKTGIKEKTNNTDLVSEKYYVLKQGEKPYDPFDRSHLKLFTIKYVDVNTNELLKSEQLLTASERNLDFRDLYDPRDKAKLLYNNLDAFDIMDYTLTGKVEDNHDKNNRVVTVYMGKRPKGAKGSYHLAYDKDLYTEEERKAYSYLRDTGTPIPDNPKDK
# [2] = alpha-synuclein stem-loop luciferase translation blockers – H4 neuroglioma cells, luminescence, confirmation (AID 1988); format: functional, cell-based
# Streptococcus = test: GAS UMAA2166 growth inhibition – luminescence, BacTiterGlo, counter-screen for streptokinase expression inhibitor project, dose response (AID 1915); format: functional, organism-based;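 also: potency for reduction of bacterial viability or growth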
# [3] = system: Streptococcus sp. 'group A'; test: Streptococcus pyogenes SK(-)GAS viability under kanamycin – luminescence, BacTiterGlo, confirmation, counter-screen for streptokinase expression inhibitor project, dose response (AID 1900); format: functional, organism-based
# [4] = luciferase reporter signal suppression in cells – H4 neuroglioma cells, luminescence, dose response (AID 1990); format: functional, cell-based
# Cytochrome P450 2C19 = Cytochrome P450 2C19 (Homo sapiens, UniProt P33261); test: Cytochrome panel assay with activity outcomes. Panel member name: p450-cyp2c19 Compounds with AC50 equal or less than 10 uM are considered active; format: functional; conditions: read-out: AC50
# Cytochrome P450 1A2 = molecular target: T2, Cytochrome P450 1A2 (Homo sapiens, UniProt P05177);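 also: PubChem cytochrome P450 panel assay, CYP1A2 panel member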
# T2 sequence (P05177 whole entry): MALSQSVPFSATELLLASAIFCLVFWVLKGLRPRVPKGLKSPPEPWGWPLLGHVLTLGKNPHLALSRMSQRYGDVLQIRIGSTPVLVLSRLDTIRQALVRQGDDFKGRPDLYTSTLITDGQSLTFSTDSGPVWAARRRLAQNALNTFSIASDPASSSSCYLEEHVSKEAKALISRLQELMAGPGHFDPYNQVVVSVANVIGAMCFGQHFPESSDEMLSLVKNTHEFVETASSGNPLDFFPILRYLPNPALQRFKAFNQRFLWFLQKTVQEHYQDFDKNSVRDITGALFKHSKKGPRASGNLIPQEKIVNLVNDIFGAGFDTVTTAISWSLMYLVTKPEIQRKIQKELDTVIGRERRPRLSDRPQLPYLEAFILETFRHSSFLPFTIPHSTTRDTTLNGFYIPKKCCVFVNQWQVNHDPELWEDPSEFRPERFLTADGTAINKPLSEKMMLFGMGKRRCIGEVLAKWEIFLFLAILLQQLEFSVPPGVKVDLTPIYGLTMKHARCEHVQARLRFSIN
# [5] = Luminescence Cell-Based Dose Response HTS to Identify Activators of Luciferase Translation or Activity in H4 […] Cells. [Related pubchem assays: 1829 (Project Summary), 1814 (Primary HTS)]; format: functional
# H4 = test: Luminescence Cell-Based Dose Response HTS to Identify Activators of 5'UTR Stem-Loop Driven Prion Protein mRNA Translation in H4 Neuroglioblastoma Cells. [Related pubchem assays: 1829 (Project Summary), 1814 (Primary HTS)]; format: functional; conditions: Homo sapiens
# [6] = Luminescence Cell-Based Dose Confirmation HTS to Identify Activators of 5'UTR Stem-Loop Driven Alpha-Synuclein mRNA Translation in H4 Neuroglioblastoma Cells. [Related pubchem assays: 1829 (Project Summary), 1814 (Primary HTS)]; format: functional
# Paired box protein Pax-8 = Paired box protein Pax-8 (Homo sapiens, UniProt Q06710); test: PAX8 transcriptional activity inhibition in RMG-I – RMG-I cells, luciferase, cherry-pick, dose response (AID 687027); format: functional, cell-based;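 also: luciferase reporter driven by Pax8 target thyroperoxidase promoter measured by SteadyGlo luminescence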
# Cytochrome P450 3A4 = Cytochrome P450 3A4 (Homo sapiens, UniProt P08684);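 also: CYP3A4 tested as one member of a cytochrome P450 panel screen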
# [7] = molecular target: T3, Heat shock factor protein 1 (Mus musculus, UniProt P38532); test: decrease of HSF1-responsive luciferase luminescence – cell-based, NIH3T3, dose retest, confirmation (AID 2382); format: functional;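 also: NIH3T3 fibroblasts with HSF1-driven luciferase reporter stressed by proteasome inhibitor MG132; luminescence from HSF1-driven luciferase expression after 8 hours of MG132 stress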
# T3 sequence (P38532 whole entry): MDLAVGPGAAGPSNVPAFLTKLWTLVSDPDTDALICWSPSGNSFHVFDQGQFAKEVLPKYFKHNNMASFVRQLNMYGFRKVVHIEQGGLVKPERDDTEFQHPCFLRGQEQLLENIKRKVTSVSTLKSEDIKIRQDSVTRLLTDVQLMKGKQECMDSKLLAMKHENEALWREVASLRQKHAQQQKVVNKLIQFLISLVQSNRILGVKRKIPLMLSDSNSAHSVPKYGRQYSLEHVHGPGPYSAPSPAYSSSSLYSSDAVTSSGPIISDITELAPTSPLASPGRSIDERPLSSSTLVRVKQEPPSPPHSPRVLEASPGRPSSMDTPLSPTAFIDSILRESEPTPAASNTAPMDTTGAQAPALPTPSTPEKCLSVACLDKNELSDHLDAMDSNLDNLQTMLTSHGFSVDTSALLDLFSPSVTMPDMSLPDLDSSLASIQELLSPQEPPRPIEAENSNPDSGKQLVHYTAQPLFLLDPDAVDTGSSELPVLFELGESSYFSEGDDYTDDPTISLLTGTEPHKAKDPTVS
# Cytochrome P450 2C9 = Cytochrome P450 2C9 (Homo sapiens, UniProt P11712)
# Chain of Cytochrome P450 2C9 (P11712 whole entry): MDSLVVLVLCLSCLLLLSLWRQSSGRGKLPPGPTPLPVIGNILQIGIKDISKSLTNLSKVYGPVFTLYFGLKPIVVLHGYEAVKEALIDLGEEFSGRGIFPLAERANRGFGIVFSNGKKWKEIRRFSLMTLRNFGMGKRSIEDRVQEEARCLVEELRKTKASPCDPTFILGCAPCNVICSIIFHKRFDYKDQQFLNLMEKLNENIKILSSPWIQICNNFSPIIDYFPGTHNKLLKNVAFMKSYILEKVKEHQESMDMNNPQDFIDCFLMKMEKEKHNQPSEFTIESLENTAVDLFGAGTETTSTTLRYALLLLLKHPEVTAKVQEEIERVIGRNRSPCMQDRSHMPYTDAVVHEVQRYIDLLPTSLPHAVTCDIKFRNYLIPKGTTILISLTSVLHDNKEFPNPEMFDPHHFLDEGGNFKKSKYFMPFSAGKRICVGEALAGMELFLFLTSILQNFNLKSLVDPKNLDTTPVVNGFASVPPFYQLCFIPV
# Chain of Cytochrome P450 2C19 (P33261 whole entry): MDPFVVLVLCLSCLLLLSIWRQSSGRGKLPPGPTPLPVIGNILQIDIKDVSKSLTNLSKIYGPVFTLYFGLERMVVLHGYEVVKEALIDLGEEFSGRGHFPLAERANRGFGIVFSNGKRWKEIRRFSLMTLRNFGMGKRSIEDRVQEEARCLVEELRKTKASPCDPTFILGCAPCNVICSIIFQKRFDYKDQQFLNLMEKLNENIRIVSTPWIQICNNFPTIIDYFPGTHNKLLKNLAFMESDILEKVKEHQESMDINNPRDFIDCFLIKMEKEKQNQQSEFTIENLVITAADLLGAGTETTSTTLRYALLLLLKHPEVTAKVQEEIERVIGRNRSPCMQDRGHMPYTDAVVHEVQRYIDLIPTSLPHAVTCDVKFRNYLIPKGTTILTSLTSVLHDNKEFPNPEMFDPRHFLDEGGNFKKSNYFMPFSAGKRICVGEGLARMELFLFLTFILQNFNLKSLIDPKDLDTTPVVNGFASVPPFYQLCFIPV
# Chain of Cytochrome P450 3A4 (P08684 whole entry): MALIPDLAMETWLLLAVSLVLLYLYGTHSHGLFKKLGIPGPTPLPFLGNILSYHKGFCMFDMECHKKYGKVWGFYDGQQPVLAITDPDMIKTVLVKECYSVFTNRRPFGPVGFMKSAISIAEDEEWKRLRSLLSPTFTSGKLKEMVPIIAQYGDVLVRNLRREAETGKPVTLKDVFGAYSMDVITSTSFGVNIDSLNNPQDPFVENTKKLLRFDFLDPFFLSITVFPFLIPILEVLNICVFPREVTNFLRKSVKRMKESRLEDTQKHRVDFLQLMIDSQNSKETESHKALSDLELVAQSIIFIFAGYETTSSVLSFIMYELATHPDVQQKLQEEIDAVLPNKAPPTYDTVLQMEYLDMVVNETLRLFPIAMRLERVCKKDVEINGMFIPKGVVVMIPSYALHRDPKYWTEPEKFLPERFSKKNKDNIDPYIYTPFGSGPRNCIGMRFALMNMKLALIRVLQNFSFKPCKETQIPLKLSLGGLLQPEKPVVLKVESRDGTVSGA
# Chain of Paired box protein Pax-8 (Q06710 whole entry): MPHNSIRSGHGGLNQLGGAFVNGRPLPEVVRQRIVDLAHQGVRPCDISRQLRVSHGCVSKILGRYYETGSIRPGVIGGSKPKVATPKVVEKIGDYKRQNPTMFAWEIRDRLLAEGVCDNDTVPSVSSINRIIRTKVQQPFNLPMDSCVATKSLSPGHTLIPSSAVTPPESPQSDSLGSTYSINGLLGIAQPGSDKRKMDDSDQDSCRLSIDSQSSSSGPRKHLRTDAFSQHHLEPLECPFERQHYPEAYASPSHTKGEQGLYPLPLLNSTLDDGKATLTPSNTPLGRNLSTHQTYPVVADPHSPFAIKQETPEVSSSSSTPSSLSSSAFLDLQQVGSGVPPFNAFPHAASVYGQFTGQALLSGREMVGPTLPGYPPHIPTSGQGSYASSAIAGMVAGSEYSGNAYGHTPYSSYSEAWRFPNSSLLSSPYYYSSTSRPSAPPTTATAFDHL
smiles,measurement,setting,value
CNS(=O)(=O)c1ccc(NC(=O)c2cnn3c(C(F)F)cc(-c4ccccc4)nc23)cc1,EC50,[1],31.8 µM (active)
same,EC50,Streptokinase A,> 150 µM (not active)
same,EC50,[2],12.1 µM (active)
same,EC50,Streptococcus,> 150 µM (not active)
same,EC50,[3],85.3 µM (active)
same,EC50,[4],> 120 µM (not active)
COC(=O)[C@@]1(Cc2ccc(OC)cc2)[C@H]2c3cc(C(=O)N(C)C)n(CCN4CNCC4=O)c3C[C@H]2CN1C(=O)c1ccccc1,AC50,Cytochrome P450 2C19,15.8 µM (inconclusive)
same,AC50,Cytochrome P450 1A2,20 µM (inconclusive)
CC(=O)n1c2c(c3ccccc31)OC(N)=C(C#N)C2c1ccc(C(C)C)cc1 (centres undefined),EC50,[5],10 µM (active)
same,EC50,H4,16.2 µM (active)
same,EC50,[6],11.7 µM (active)
O=c1c(-c2ccc(Cl)cc2)nc2cnc(Nc3ccccc3)nc2n1C[C@H]1CCCO1,AC50,Cytochrome P450 1A2,12.6 µM (inconclusive)
Cc1ccc(C)c(NC(=O)c2cc3ccccn3n2)c1,EC50,[5],0.163 µM (active)
same,EC50,H4,41.1 µM (active)
same,EC50,[6],0.765 µM (active)
CCCc1cc2c(=O)c(-c3ccc4c(c3)OCCO4)coc2cc1OS(C)(=O)=O,EC50,[5],< 0.195 µM (inconclusive)
same,EC50,H4,> 120 µM (not active)
same,EC50,[6],0.103 µM (active)
Cc1cc(C)c2c(N)c(C(=O)Nc3cccc(C)c3C)sc2n1,EC50,[5],3.92 µM (active)
same,EC50,H4,> 120 µM (not active)
same,EC50,[6],> 120 µM (not active)
Cc1ccc(S(=O)(=O)N(C)C[C@H]2OCCCC[C@@H](C)Oc3ccc(NS(=O)(=O)c4ccc(F)cc4)cc3C(=O)N([C@@H](C)CO)C[C@H]2C)cc1,AC50,Paired box protein Pax-8,8.12 µM (active)
NS(=O)(=O)c1ccc(NC2(C(=O)O)CCCC2)cc1,AC50,Cytochrome P450 1A2,0.794 µM (inconclusive)
O=c1c2c(n3cnnc3n1C1CCCCC1)-c1ccccc1CC21CCCCC1,EC50,[1],> 120 µM (not active)
same,EC50,[2],> 120 µM (not active)
same,EC50,[4],> 120 µM (not active)
CCOC(=O)c1ncn2c1[C@H]1CCCN1C(=O)c1cc(OC)ccc1-2,AC50,Cytochrome P450 1A2,39.8 µM (inconclusive)
O=c1c2cc(-c3ccccc3)sc2ncn1-n1cccc1,EC50,[5],0.674 µM (active)
same,EC50,H4,15 µM (active)
same,EC50,[6],0.473 µM (active)
CCN(CC)S(=O)(=O)c1cccc(-c2nnc(S)n2/N=C/c2ccc(OC)cc2)c1,EC50,[1],> 120 µM (not active)
same,EC50,[2],34.8 µM (active)
same,EC50,[4],23.8 µM (active)
NC[C@](O)(CS(=O)(=O)O)c1ccc(Cl)cc1,AC50,Cytochrome P450 3A4,1 µM (inconclusive)
same,AC50,Cytochrome P450 1A2,31.6 µM (inconclusive)
Cc1cc(NC(=O)C2C3C(=O)N(Cc4ccc(Cl)cc4)C(C(=O)NC(C)(C)C)C34C=CC2(C)O4)no1 (centres undefined),AC50,Cytochrome P450 3A4,25.1 µM (inconclusive)
same,EC50,[7],> 195 µM (not active)
CCc1ccc(N2C(=O)/C(=C/c3cccs3)N(CC(=O)OC)C2=S)cc1,AC50,Cytochrome P450 2C19,3.98 µM (inconclusive)
same,AC50,Cytochrome P450 3A4,12.6 µM (inconclusive)
same,AC50,Cytochrome P450 1A2,15.8 µM (inconclusive)
same,AC50,Cytochrome P450 2C9,12.6 µM (inconclusive)
COc1ccc(-n2c(=O)c(-c3ccccc3)nc3cnc(N4CCOCC4)nc32)cc1,AC50,Cytochrome P450 1A2,15.8 µM (inconclusive)
C[C@H](O)C#Cc1cnc2c(c1)C(=O)N([C@H](C)CO)C[C@H](C)[C@H](CN(C)Cc1ccc(-c3ccccc3)cc1)O2,AC50,Paired box protein Pax-8,5.05 µM (active)
CCC(CC)C(=O)Nc1cccc(/C(C)=N\NC(=O)c2ccc(C)s2)c1,AC50,Cytochrome P450 1A2,3.16 µM (inconclusive)
same,AC50,Cytochrome P450 2C9,0.355 µM (inconclusive)
Nc1ccc(S(=O)(=O)c2ccc(NC(=O)c3cccnc3)cc2)cc1,AC50,Cytochrome P450 3A4,3.16 µM (inconclusive)
same,AC50,Cytochrome P450 2C9,6.31 µM (inconclusive)
COCCn1c(=O)c(-c2ccc(F)c(F)c2)nc2cncnc21,AC50,Cytochrome P450 3A4,12.6 µM (inconclusive)
c1ccc2c3c([nH]c2c1)[C@@H]1[C@H]2CC[C@H]([C@H]4CCCN[C@H]42)N1CC3,AC50,Cytochrome P450 1A2,15.8 µM (inconclusive)
COc1ccc(NS(=O)(=O)c2cccc(N3CC(=O)C(c4ccccc4)=C3N)c2)cc1,EC50,[1],> 120 µM (not active)
same,EC50,[2],> 120 µM (not active)
same,EC50,[4],> 120 µM (not active)
CCOCC(=O)Nc1c(C(=O)Nc2ccccc2OC)oc2ccccc12,AC50,Cytochrome P450 3A4,6.31 µM (inconclusive)
COc1cc2c(cc1OC)CN(c1ccc3ccccc3n1)CC2,EC50,[5],11.9 µM (active)
same,EC50,H4,15.9 µM (active)
same,EC50,[6],17 µM (active)
Cc1ccccc1-c1cc(C(=O)Nc2nc3c(s2)CCCC3)c2ccccc2n1,AC50,Cytochrome P450 1A2,3.55 µM (inconclusive)
Oc1ccc(CNCc2ccccc2)c2cccnc12,AC50,Cytochrome P450 1A2,5.01 µM (inconclusive)
CC1(C)CC(=O)C(CCCN2C(=O)c3ccccc3C2=O)C(=O)C1,AC50,Cytochrome P450 2C19,39.8 µM (inconclusive)
same,AC50,Cytochrome P450 1A2,28.2 µM (inconclusive)
Cc1ccc(NC(=O)c2nc[nH]c2C(=O)N[C@@H](C)c2ccccc2)cc1,EC50,[1],> 120 µM (not active)
same,EC50,Streptokinase A,> 150 µM (not active)
same,EC50,[2],> 120 µM (not active)
same,EC50,Streptococcus,16.9 µM (active)
same,EC50,[3],1.05 µM (active)
same,EC50,[4],17.3 µM (active)
CCCN(CCC)[C@@H]1CCc2c(OC)cccc2[C@@H]1C,AC50,Cytochrome P450 1A2,31.6 µM (inconclusive)
C=CCn1c2ccccc2c2nnc(S)nc21,EC50,[1],> 120 µM (not active)
same,EC50,[2],> 120 µM (not active)
same,EC50,[4],17.8 µM (active)
COc1cccc(Nc2ncc3nc(-c4cc(F)cc(F)c4)c(=O)n(C4CC4)c3n2)c1,AC50,Cytochrome P450 1A2,6.31 µM (inconclusive)
CCOc1ccc(-c2nc(S(=O)(=O)c3ccccc3)c(NCc3cccnc3)o2)cc1,EC50,[1],> 120 µM (not active)
same,EC50,[2],> 120 µM (not active)
same,EC50,[4],> 120 µM (not active)
O=C(Nc1nnc(-c2ccccc2F)s1)C1CCCO1 (centres undefined),EC50,[5],0.89 µM (active)
same,EC50,[6],0.223 µM (active)
COc1cccc(Cn2c(=O)c(-c3cccc(C#N)c3)nc3cnc(Nc4ccccc4)nc32)c1,AC50,Cytochrome P450 3A4,0.794 µM (inconclusive)
Cc1c(NC(=O)/C(C#N)=C/c2ccc(-c3ccccc3Cl)o2)c(=O)n(-c2ccccc2)n1C,EC50,[1],> 120 µM (not active)
same,EC50,[2],> 120 µM (not active)
same,EC50,[4],13.4 µM (active)
C/C(CCN1CCCc2nc(C)c(C)cc21)=N\O[C@@H](C)c1cc(-c2c(C)cc(C)cc2C)no1,AC50,Cytochrome P450 3A4,5.01 µM (inconclusive)
COC(=O)c1nn(-c2cccc(C(F)(F)F)c2)c(=O)cc1Sc1ccccn1,AC50,Cytochrome P450 3A4,20 µM (inconclusive)
same,EC50,[7],> 195 µM (not active)
same,AC50,Cytochrome P450 2C9,3.98 µM (inconclusive)
